According to US20250313548A1 (Actio Biosciences, Inc., priority 2023, published 2025):
pIC50: −log10 of the molar value.

Target: human, KCNT1 (Homo sapiens (Human), UniProt Q5JUK3)
Test: FLIPR Tl/K Flux Assay
Type: cell-based
Settings: HEK293 cells stably expressing human KCNT1; Tl+ flux stimulated with EC80 of agonist Loxapine
In short: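 Inhibition values come from a Hill-equation fit of % inhibition versus log concentration, using normalized fluorescence (Fmax/Fmin) over a 160 s read. The read followed stimulation with Tl+ plus EC80 agonist loxapine after 30 min compound pre-incubation at 25 °C. Cells were KCNT1-expressing HEK293, dye-loaded 1 h in pH 7.4 HEPES/HBSS with 5 mM probenecid.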

Sequence of human, KCNT1 (Q5JUK3 whole entry): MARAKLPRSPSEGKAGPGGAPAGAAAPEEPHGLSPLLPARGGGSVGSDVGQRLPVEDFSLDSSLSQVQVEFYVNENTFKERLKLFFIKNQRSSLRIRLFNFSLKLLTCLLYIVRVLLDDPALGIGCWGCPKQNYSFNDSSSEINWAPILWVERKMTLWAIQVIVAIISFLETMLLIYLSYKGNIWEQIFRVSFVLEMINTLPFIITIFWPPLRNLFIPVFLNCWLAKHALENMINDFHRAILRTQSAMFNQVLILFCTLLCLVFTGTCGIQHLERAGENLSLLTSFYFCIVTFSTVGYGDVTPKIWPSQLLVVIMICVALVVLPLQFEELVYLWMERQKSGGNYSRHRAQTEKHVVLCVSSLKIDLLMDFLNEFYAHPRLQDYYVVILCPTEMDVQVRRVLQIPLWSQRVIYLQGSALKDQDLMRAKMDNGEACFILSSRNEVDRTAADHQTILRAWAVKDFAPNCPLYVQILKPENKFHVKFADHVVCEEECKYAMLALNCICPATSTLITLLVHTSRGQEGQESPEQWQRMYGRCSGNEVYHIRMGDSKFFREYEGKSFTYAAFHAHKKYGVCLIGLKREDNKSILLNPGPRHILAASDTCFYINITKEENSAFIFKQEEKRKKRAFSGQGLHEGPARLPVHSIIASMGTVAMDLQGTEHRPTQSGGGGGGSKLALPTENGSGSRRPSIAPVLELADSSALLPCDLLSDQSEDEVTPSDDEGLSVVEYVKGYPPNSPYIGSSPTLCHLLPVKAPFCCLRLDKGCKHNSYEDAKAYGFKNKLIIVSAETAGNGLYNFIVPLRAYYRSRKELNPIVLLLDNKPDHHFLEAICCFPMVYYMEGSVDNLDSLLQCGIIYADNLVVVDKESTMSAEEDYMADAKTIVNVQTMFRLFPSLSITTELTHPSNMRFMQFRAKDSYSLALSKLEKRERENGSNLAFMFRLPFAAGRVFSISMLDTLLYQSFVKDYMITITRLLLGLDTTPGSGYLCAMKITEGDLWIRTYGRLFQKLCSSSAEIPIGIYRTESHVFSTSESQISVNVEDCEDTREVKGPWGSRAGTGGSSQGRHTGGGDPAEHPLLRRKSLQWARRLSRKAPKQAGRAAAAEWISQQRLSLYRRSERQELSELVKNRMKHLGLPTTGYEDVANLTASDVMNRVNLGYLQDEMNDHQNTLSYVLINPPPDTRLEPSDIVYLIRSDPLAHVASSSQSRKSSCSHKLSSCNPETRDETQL

Row | SMILES | pIC50
1 | Cn1nc(C(F)(F)F)nc1C(=O)N[C@H]1CCn2nc(-c3cc(C(F)(F)F)ncc3Cl)cc21 [Compound I-142a, (S)-N-(2-(5-Chloro-2-(trifluoromethyl)pyridin-4-yl)-5,6-dihydro-4H-pyrrolo[1,2-b]pyrazol-4-yl)-1-methyl-3-(trifluoromethyl)-1H-1,2,4-triazole-5-carboxamide] | > 6.60
2 | COc1cc(-c2nc3c(o2)[C@@H](NC(=O)c2cncc(C(F)(F)F)n2)CCC3)ccn1 [Compound I-143a, (S)-N-(2-(2-Methoxypyridin-4-yl)-4,5,6,7-tetrahydrobenzo[d]oxazol-7-yl)-6-(trifluoromethyl)pyrazine-2-carboxamide] | < 6.00
3 | Cc1cnc(C(F)(F)F)cc1-c1cc2n(n1)CC[C@@H]2NC(=O)c1cccc(C#N)c1 [Compound I-144a, (S)-3-Cyano-N-(2-(5-methyl-2-(trifluoromethyl)pyridin-4-yl)-5,6-dihydro-4H-pyrrolo[1,2-b]pyrazol-4-yl)benzamide] | > 6.60
4 | COc1cc(C(=O)N[C@H]2CCn3nc(-c4cc(C(F)(F)F)ncc4F)cc32)ccn1 [Compound I-145a, (S)—N-(2-(5-Fluoro-2-(trifluoromethyl)pyridin-4-yl)-5,6-dihydro-4H-pyrrolo[1,2-b]pyrazol-4-yl)-2-methoxyisonicotinamide] | > 6.60
5 | Cn1nc(C(F)(F)F)nc1C(=O)N[C@H]1CCn2nc(-c3ccnc(C(C)(F)F)c3)cc21 [Compound I-146a, (S)—N-(2-(2-(1,1-Difluoroethyl)pyridin-4-yl)-5,6-dihydro-4H-pyrrolo[1,2-b]pyrazol-4-yl)-1-methyl-3-(trifluoromethyl)-1H-1,2,4-triazole-5-carboxamide] | > 6.60
6 | O=C(N[C@H]1CCn2nc(-c3ccnc(C(F)(F)F)c3)cc21)C1CC(C(F)(F)F)C1 (stereo partly drawn) [Compound I-147a, (S)-3-(Trifluoromethyl)-N-(2-(2-(trifluoromethyl)pyridin-4-yl)-5,6-dihydro-4H-pyrrolo[1,2-b]pyrazol-4-yl)cyclobutane-1-carboxamide] | > 6.60
7 | COc1cc(-c2nc3c(o2)[C@@H](NC(=O)c2cc(Cl)cc(Cl)c2)CCC3)ccn1 [Compound I-150a, (S)-3,5-Dichloro-N-(2-(2-methoxypyridin-4-yl)-4,5,6,7-tetrahydrobenzo[d]oxazol-7-yl)benzamide] | > 6.60
8 | COc1cc(-c2nc3c(o2)[C@@H](NC(=O)c2cccc(OC(F)(F)F)c2)CCC3)ccn1 [Compound I-151a, (S)-N-(2-(2-Methoxypyridin-4-yl)-4,5,6,7-tetrahydrobenzo[d]oxazol-7-yl)-3-(trifluoromethoxy)benzamide] | > 6.60
9 | O=C(N[C@H]1CCCc2nc(-c3ccnc(C4CC4)c3)oc21)c1cncc(C(F)(F)F)n1 [Compound I-152a, (S)-N-(2-(2-Cyclopropylpyridin-4-yl)-4,5,6,7-tetrahydrobenzo[d]oxazol-7-yl)-6-(trifluoromethyl)pyrazine-2-carboxamide] | > 6.60
10 | O=C(N[C@H]1CCCc2nc(-c3ccnc(C4CC4)c3)oc21)c1cc(Cl)cc(Cl)c1 [Compound I-153a, (S)-3,5-Dichloro-N-(2-(2-cyclopropylpyridin-4-yl)-4,5,6,7-tetrahydrobenzo[d]oxazol-7-yl)benzamide] | > 6.60
11 | Cn1nc(C(F)F)nc1C(=O)N[C@H]1CCn2nc(-c3ccnc(C(F)(F)F)c3)cc21 [Compound I-155a, (S)-3-(Difluoromethyl)-1-methyl-N-(2-(2-(trifluoromethyl)pyridin-4-yl)-5,6-dihydro-4H-pyrrolo[1,2-b]pyrazol-4-yl)-1H-1,2,4-triazole-5-carboxamide] | > 6.60
12 | O=C(N[C@H]1CCCc2nc(-c3cc(C4CC4)ncc3F)oc21)c1cncc(C(F)(F)F)n1 [Compound I-156a] | > 6.60
13 | O=C(N[C@H]1CCCc2nc(-c3cc(C4CC4)ncc3F)oc21)c1cc(Cl)cc(Cl)c1 [Compound I-157a, (S)-3,5-Dichloro-N-(2-(2-cyclopropyl-5-fluoropyridin-4-yl)-4,5,6,7-tetrahydrobenzo[d]oxazol-7-yl)benzamide] | > 6.60
14 | O=C(N[C@H]1CCCc2nc(-c3cc(C4CC4)ncc3F)oc21)c1ccnc(OC(F)(F)F)c1 [Compound I-158a, (S)-N-(2-(2-Cyclopropyl-5-fluoropyridin-4-yl)-4,5,6,7-tetrahydrobenzo[d]oxazol-7-yl)-2-(trifluoromethoxy)isonicotinamide] | > 6.60
15 | O=C(N[C@H]1CCCc2nc(-c3cc(C4CC4)ncc3F)oc21)c1cccc(OC(F)(F)F)c1 [Compound I-159a, (S)-N-(2-(2-Cyclopropyl-5-fluoropyridin-4-yl)-4,5,6,7-tetrahydrobenzo[d]oxazol-7-yl)-3-(trifluoromethoxy)benzamide] | > 6.60
16 | N#Cc1cccc(C(=O)N[C@H]2CCCCc3oc(-c4ccnc(C(F)(F)F)c4)nc32)c1 [Compound I-160a, (S)-3-cyano-N-(2-(2-(trifluoromethyl)pyridin-4-yl)-5,6,7,8-tetrahydro-4H-cyclohepta[d]oxazol-4-yl)benzamide] | > 6.60
17 | N#Cc1cccc(C(=O)N[C@@H]2CCCCc3oc(-c4ccnc(C(F)(F)F)c4)nc32)c1 [Compound I-160b, (R)-3-cyano-N-(2-(2-(trifluoromethyl)pyridin-4-yl)-5,6,7,8-tetrahydro-4H-cyclohepta[d]oxazol-4-yl)benzamide] | > 6.60

Row | SMILES | pIC50
18 | COc1cc(-c2nc3c(o2)[C@@H](NC(=O)c2cncc(C(F)(F)F)n2)CCC3)c(Cl)cn1 [Compound I-161a, (S)-N-(2-(5-Chloro-2-methoxypyridin-4-yl)-4,5,6,7-tetrahydrobenzo[d]oxazol-7-yl)-6-(trifluoromethyl)pyrazine-2-carboxamide] | 6.30 to 6.60
19 | COc1cc(-c2nc3c(o2)[C@@H](NC(=O)c2cc(Cl)cc(Cl)c2)CCC3)c(Cl)cn1 [Compound I-162a, (S)-3,5-Dichloro-N-(2-(5-chloro-2-methoxypyridin-4-yl)-4,5,6,7-tetrahydrobenzo[d]oxazol-7-yl)benzamide] | > 6.60
20 | COc1cc(-c2nc3c(o2)[C@@H](NC(=O)c2ccnc(OC(F)(F)F)c2)CCC3)c(Cl)cn1 [Compound I-163a] | > 6.60
21 | COc1cc(-c2nc3c(o2)[C@@H](NC(=O)c2cccc(OC(F)(F)F)c2)CCC3)c(Cl)cn1 [Compound I-164a, (S)-N-(2-(5-Chloro-2-methoxypyridin-4-yl)-4,5,6,7-tetrahydrobenzo[d]oxazol-7-yl)-3-(trifluoromethoxy)benzamide] | > 6.60
22 | O=C(N[C@H]1CCCc2nc(-c3cc(C4CC4)ncc3F)oc21)c1cccc(C(F)(F)F)c1 [Compound I-165a, (S)-N-(2-(2-Cyclopropyl-5-fluoropyridin-4-yl)-4,5,6,7-tetrahydrobenzo[d]oxazol-7-yl)-3-(trifluoromethyl)benzamide] | > 6.60
23 | Cn1nc(C(F)(F)F)cc1C(=O)N[C@H]1CCCc2nc(-c3cc(C4CC4)ncc3F)oc21 [Compound I-166a, (S)—N-(2-(2-Cyclopropyl-5-fluoropyridin-4-yl)-4,5,6,7-tetrahydrobenzo[d]oxazol-7-yl)-1-methyl-3-(trifluoromethyl)-1H-pyrazole-5-carboxamide] | > 6.60
24 | COc1cc(-c2nc3c(o2)[C@@H](NC(=O)c2cccc(C(F)(F)F)c2)CCC3)c(Cl)cn1 [Compound I-167a, (S)-N-(2-(5-Chloro-2-methoxypyridin-4-yl)-4,5,6,7-tetrahydrobenzo[d]oxazol-7-yl)-3-(trifluoromethyl)benzamide] | > 6.60
25 | COc1cc(-c2nc3c(o2)[C@@H](NC(=O)c2cccc(C(F)(F)F)c2)CCC3)ccn1 [Compound I-168a, (S)-N-(2-(2-Methoxypyridin-4-yl)-4,5,6,7-tetrahydrobenzo[d]oxazol-7-yl)-3-(trifluoromethyl)benzamide] | > 6.60
26 | O=C(N[C@H]1CCCc2nc(-c3ccnc(C4CC4)c3)oc21)c1ccnc(OC(F)(F)F)c1 [Compound I-169a, (S)-N-(2-(2-Cyclopropylpyridin-4-yl)-4,5,6,7-tetrahydrobenzo[d]oxazol-7-yl)-2-(trifluoromethoxy)isonicotinamide] | > 6.60
27 | O=C(N[C@H]1CCCc2nc(-c3ccnc(C4CC4)c3)oc21)c1cccc(OC(F)(F)F)c1 [Compound I-170a, (S)-N-(2-(2-Cyclopropylpyridin-4-yl)-4,5,6,7-tetrahydrobenzo[d]oxazol-7-yl)-3-(trifluoromethoxy)benzamide] | > 6.60
28 | O=C(N[C@H]1CCCc2nc(-c3ccnc(C4CC4)c3)oc21)c1cccc(C(F)(F)F)c1 [Compound I-171a, (S)-N-(2-(2-Cyclopropylpyridin-4-yl)-4,5,6,7-tetrahydrobenzo[d]oxazol-7-yl)-3-(trifluoromethyl)benzamide] | > 6.60
29 | COc1cc(-c2cc3n(n2)CC[C@@H]3NC(=O)c2cc(C(F)(F)F)nn2C)c(C(F)(F)F)cn1 [Compound I-172a, (S)-N-(2-(2-Methoxy-5-(trifluoromethyl)pyridin-4-yl)-5,6-dihydro-4H-pyrrolo[1,2-b]pyrazol-4-yl)-1-methyl-3-(trifluoromethyl)-1H-pyrazole-5-carboxamide] | > 6.60
30 | COc1cc(-c2cc3n(n2)CC[C@H]3NC(=O)c2cc(C(F)(F)F)nn2C)c(C(F)(F)F)cn1 [Compound I-172b] | < 6.00
31 | COc1cc(-c2nc3c(o2)[C@@H](NC(=O)c2cncc(C(F)(F)F)n2)CCC3)c(F)cn1 [Compound I-173a] | 6.30 to 6.60
32 | COc1cc(-c2nc3c(o2)[C@@H](NC(=O)c2cc(Cl)cc(Cl)c2)CCC3)c(F)cn1 [Compound I-174a, (S)-3,5-Dichloro-N-(2-(5-fluoro-2-methoxypyridin-4-yl)-4,5,6,7-tetrahydrobenzo[d]oxazol-7-yl)benzamide] | > 6.60
33 | COc1cc(-c2nc3c(o2)[C@@H](NC(=O)c2ccnc(OC(F)(F)F)c2)CCC3)c(F)cn1 [Compound I-175a] | > 6.60
34 | COc1cc(-c2nc3c(o2)[C@@H](NC(=O)c2cccc(OC(F)(F)F)c2)CCC3)c(F)cn1 [Compound I-176a, (S)-N-(2-(5-Fluoro-2-methoxypyridin-4-yl)-4,5,6,7-tetrahydrobenzo[d]oxazol-7-yl)-3-(trifluoromethoxy)benzamide] | > 6.60
